# In patent US20100069339A1, “NOVEL METHOD OF TREATMENT OF MALE SUB-FERTILITY” (BIOXELL S.P.A., priority 2006, published 2010):
# “Also recorded” adds a separate entry of the source.
# What was measured:
# human BPH cells = experiment: Inhibition of IL-8 production in human BPH cells by vitamin D compounds; type: cell-based; settings: BPH cells stimulated with IL-17 10 ng/ml and interferon gamma 10 ng/ml; compounds at 1, 10 and 100 nM, 72 hours; ELISA
# Description: Approximately 2000 human BPH cells were placed in wells of a standard 96 well plate and stimulated for 72 hours with IL-17 at 10 ng/ml and interferon gamma at 10 ng/ml and incubated with vitamin D compounds individually at concentrations of 1, 10 and 100 nM for 72 hours IL-8 production by the cells was measured by conventional two-site ELISA using human IL-8 ELISA set (BD Biosciences, San Diego, Calif.) according to the manufacturer's instructions.
# IL-8 [1] = experiment: Seminal IL-8 in CP/CPPS patients, randomized double-blind placebo controlled study; type: in vivo, human
# Description: We conducted a randomized, double-blind placebo controlled study in 121 patients with CP/CPPS. The primary objective of the study was to evaluate the effect of Compound A(150 mcg/die) after three months of treatment on the NIH score, a score encompassing pain, quality of life and lower urinary tract symptoms. As a secondary endpoint, we measured IL8 in the semen at baseline and at the end of the treatment.
# IL-8 [2] = experiment: Sandwich ELISA re-evaluation of seminal plasma IL-8 in trial patients; type: in vivo, human; settings: 29 Compound A-treated vs 27 Placebo-treated patients, p=0.002
# Description: (§1) A sandwich ELISA system was used to re-evaluate seminal plasma IL-8 level in 27 Placebo-treated and 29 Compound A—treated patients from the trial described in Biological Example 5 and to extend the analysis to other inflammatory mediators. Note that TIMP-1 is an inhibitor of an inflammatory marker.
# CCL2/MCP-1 = experiment: Sandwich ELISA of seminal plasma CCL2/MCP-1 in trial patients; type: in vivo, human; settings: CP/CPPS patients, treatment vs placebo
# Description: as §1
# [3] = tested on: matrix metalloproteinase MMP2; experiment: Sandwich ELISA of seminal plasma MMP2 in trial patients; type: in vivo, human; settings: CP/CPPS patients, treatment vs placebo
# Description: as §1
# [4] = tested on: soluble pattern recognition receptor PTX3; experiment: Sandwich ELISA of seminal plasma PTX3 in trial patients; type: in vivo, human; settings: CP/CPPS patients, treatment vs placebo
# Description: as §1
# [5] = tested on: tissue inhibitor of metalloproteinase TIM-1; experiment: Sandwich ELISA of seminal plasma TIM-1 in trial patients; type: in vivo, human; settings: CP/CPPS patients, treatment vs placebo
# Description: as §1
# BPH cells = settings: cited from earlier work
structure (smiles),measurement,setting,value
"C=C1/C(=C\C=C2/CCC[C@]3(C)C([C@@H](C)C/C=C/C(O)(CC)CC)=CC[C@@H]23)C[C@@H](O)C[C@@H]1F [Compound A, 1-alpha-fluoro-25-hydroxy-16,23E-diene-26,27-bishomo-20-epi-cholecalciferol]",IL-8 production (IL-8 concentration),human BPH cells,can lower IL-8 levels in vitro
same,IL-8 levels in the semen vs. placebo,"IL-8 [1]; 150 mcg/die, after 12 weeks",significantly reduce; also recorded: can lower seminal IL-8 levels in human patients
same,"Seminal IL-8, % Change vs Baseline Week 12, 25th perc.","IL-8 [1]; 150 mcg/die, week 12",−42.37%
same,"Seminal IL-8, % Change vs Baseline Week 12, 75th perc.","IL-8 [1]; 150 mcg/die, week 12",1.05%
same,"Seminal IL-8, % Change vs Baseline Week 12, Max","IL-8 [1]; 150 mcg/die, week 12",89.48%
same,"Seminal IL-8, % Change vs Baseline Week 12, Mean","IL-8 [1]; 150 mcg/die, week 12",−19.33%
same,"Seminal IL-8, % Change vs Baseline Week 12, Median","IL-8 [1]; 150 mcg/die, week 12",−19.17%
same,"Seminal IL-8, % Change vs Baseline Week 12, Min","IL-8 [1]; 150 mcg/die, week 12",−61.82%
same,"Seminal IL-8, Abs Change vs Baseline Week 12, 25th perc.","IL-8 [1]; 150 mcg/die, week 12",−723.00
same,"Seminal IL-8, Abs Change vs Baseline Week 12, 75th perc.","IL-8 [1]; 150 mcg/die, week 12",12.50
same,"Seminal IL-8, Abs Change vs Baseline Week 12, Max","IL-8 [1]; 150 mcg/die, week 12",604.00
same,"Seminal IL-8, Abs Change vs Baseline Week 12, Mean","IL-8 [1]; 150 mcg/die, week 12",−368.34
same,"Seminal IL-8, Abs Change vs Baseline Week 12, Median","IL-8 [1]; 150 mcg/die, week 12",−358.00
same,"Seminal IL-8, Abs Change vs Baseline Week 12, Min","IL-8 [1]; 150 mcg/die, week 12",−1264.00
same,"Seminal IL-8, Week 12, 25th perc.","IL-8 [1]; 150 mcg/die, week 12",809.50
same,"Seminal IL-8, Week 12, 75th perc.","IL-8 [1]; 150 mcg/die, week 12",1394.00
same,"Seminal IL-8, Week 12, Max","IL-8 [1]; 150 mcg/die, week 12",2599.00
same,"Seminal IL-8, Week 12, Mean","IL-8 [1]; 150 mcg/die, week 12",1172.57
same,"Seminal IL-8, Week 12, Median","IL-8 [1]; 150 mcg/die, week 12",985.50
same,"Seminal IL-8, Week 12, Min","IL-8 [1]; 150 mcg/die, week 12",386.00
same,"Seminal IL-8, Baseline, 25th perc.",IL-8 [1]; before treatment,947.50
same,"Seminal IL-8, Baseline, 75th perc.",IL-8 [1]; before treatment,1903.50
same,"Seminal IL-8, Baseline, Max",IL-8 [1]; before treatment,3015.00
same,"Seminal IL-8, Baseline, Mean",IL-8 [1]; before treatment,1486.43
same,"Seminal IL-8, Baseline, Median",IL-8 [1]; before treatment,1376.50
same,"Seminal IL-8, Baseline, Min",IL-8 [1]; before treatment,468.00
same,seminal plasma IL-8 levels compared to placebo,IL-8 [2],Significantly reduced
same,CCL2/MCP-1 level in seminal plasma,CCL2/MCP-1,decreased
same,MMP2 level in seminal plasma,[3],decreased
same,PTX3 level in seminal plasma,[4],decreased
same,TIM-1 level in seminal plasma,[5],enhanced
"C=C1CC[C@H](O)C/C1=C/C=C1\CCC[C@]2(C)[C@@H]([C@H](C)CCCC(C)C)CC[C@@H]12 [vitamin D3, 9,10-secocholesta-5,7,10(19)-trien-3B-ol]",BPH cell proliferation,BPH cells,inhibited
same,mitogenic activity of growth factors for BPH cells,BPH cells; keratinocyte growth factor (KGF) and insulin-like growth factor (IGF1),counteracted
